SMILES strings stand for the structures.

This assay concerns the target T1, Enoyl-[acyl-carrier-protein] reductase [NADPH] FabI (Staphylococcus aureus (strain MRSA252), UniProt Q6GI75).
T1 sequence (Q6GI75 whole entry): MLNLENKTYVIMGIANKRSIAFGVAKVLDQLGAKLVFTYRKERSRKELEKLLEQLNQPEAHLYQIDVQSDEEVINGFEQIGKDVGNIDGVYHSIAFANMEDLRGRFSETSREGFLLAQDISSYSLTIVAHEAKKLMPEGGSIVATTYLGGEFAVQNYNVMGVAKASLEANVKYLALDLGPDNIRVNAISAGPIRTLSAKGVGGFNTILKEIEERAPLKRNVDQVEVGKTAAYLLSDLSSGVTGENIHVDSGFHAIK
In words: Enzyme Inhibition Assay. Particulars: pH 6.5; 30 °C. The protocol: Assays were carried out in half-area, 96-well microtiter plates. Compounds were evaluated in assay mixtures containing components specific for each enzyme. Inhibitors were varied over the range 0.01-10 uM. The consumption of NAD(P)H was monitored for 20 min at 30 °C by following the change in absorbance at 340 nm. IC50 values were estimated from a fit of the initial velocities to a standard equation.
As to `O=C(c1ccc(O)cc1)N1CCc2c([nH]c3ccccc23)C1` [4-{1H,2H,3H,4H,9H-pyrido[3,4-b]indol-2-ylcarbonyl}phenol], the concentration for half-maximal inhibition (IC50) (commonly the point on the concentration scale where inhibition reaches its midpoint) came out at 1.4 µM. The result for `O=C(c1ccc(O)cc1)N1CCc2c(n(Cc3ccccc3)c3ccccc23)C1` [4-({9-benzyl-1H,2H,3H,4H,9H-pyrido[3,4-b]indol-2-yl}carbonyl)phenol] reads 1.3 µM; that for `COC(=O)Cn1c2c(c3ccccc31)CCN(C(=O)c1ccc(O)cc1)C2` [methyl 2-{2-[(4-hydroxyphenyl)carbonyl]-1H,2H,3H,4H,9H-pyrido[3,4-b]indol-9-yl}acetate], 9.8 µM; that for `Cn1c2c(c3ccccc31)CCN(C(=O)c1ccc(O)cc1)C2` [4-({9-methyl-1H,2H,3H,4H,9H-pyrido[3,4-b]indol-2-yl}carbonyl)phenol], 1.4 µM. The result for `CN1Cc2cc(C(=O)N3CCc4c([nH]c5ccccc45)C3)ccc2NC(CC(=O)O)C1=O` (stereo not drawn) [2-(4-methyl-3-oxo-7-{1H,2H,3H,4H,9H-pyrido[3,4-b]indol-2-ylcarbonyl}-2,3,4,5-tetrahydro-1H-1,4-benzodiazepin-2-yl)acetic acid] reads 7.8 µM; that for `O=C(c1ccccc1)N1CCc2c([nH]c3ccccc23)C1` [2-benzoyl-1H,2H,3H,4H,9H-pyrido[3,4-b]indole], 2.7 µM; that for `O=C(c1ccc(O)cc1)N1CCc2c(n(Cc3cccc(O)c3)c3ccccc23)C1` [4-({9-[(3-hydroxyphenyl)methyl]-1H,2H,3H,4H,9H-pyrido[3,4-b]indol-2-yl}carbonyl)phenol], 0.42 µM. As for `COC(=O)CCCCn1c2c(c3ccccc31)CCN(C(=O)c1ccc(O)cc1)C2` [methyl 5-{2-[(4-hydroxyphenyl)carbonyl]-1H,2H,3H,4H,9H-pyrido[3,4-b]indol-9-yl}pentanoate], the figure is 4.6 µM.

These data come from BindingDB's records for doi:10.1016/s0960-894x(01)00405-x (Glaxosmithkline, 2001).
